Experimental data taken from patent publication US6420419B1, “L-ascorbic acid 2-phosphate zinc salt and process for manufacturing the same” (Showa Denko Kabushiki Kaisha, priority 1997, dated 2002).

Columns and labels:
E. coli (K-12 strain) = assay: Antimicrobial effect, turbidity in NUTRIENT BROTH; type: cell-based; parameters: key: “+” indicates that turbidity increased after incubation; “−” indicates no increase in turbidity; settings: 0.1% salt, pH 6.8, about 10^7 cells/ml, 37° C. for 24 hours
Experimental: (§1) To NUTRIENT BROTH (produced by DIFCO), 0.1% of an L-ascorbic acid 2-phosphate salt was added thereto, and the pH was adjusted to 6.8 using hydrochloric acid or sodium hydroxide. Using 5 ml of the medium thus prepared, test bacterium were inoculated in a concentration of about 10^7 cells/ml and incubated in a test tube at 37° C. for 24 hours. […] As a control, the same test was performed using a medium not containing an L-ascorbic acid 2-phosphate salt.

B. subtilis (168 strain) = assay: Antimicrobial effect, turbidity in NUTRIENT BROTH; type: cell-based; parameters: key: “+” indicates that turbidity increased after incubation; “−” indicates no increase in turbidity; settings: 0.1% salt, pH 6.8, about 10^7 cells/ml, 37° C. for 24 hours
Experimental: as §1

[1] = Stability in buffer solution, storage at 50° C. for 476 hours, HPLC; type: physicochemical; settings: for Stability (100% = concentration before storage) pH: 8: about 0.1% in 50 mM Tris-HCl, pH: 8, stored at 50° C. for 476 hours; for Stability (100% = concentration before storage) pH: 5: about 0.1% in 50 mM acetic acid-NaOH, pH: 5, stored at 50° C. for 476 hours
Experimental: In the Examples and Test Examples, the analysis of an L-ascorbic acid 2-phosphate salt or an ion thereof was performed using an Ap-containing solution having a known concentration (prepared from L-ascorbic acid 2-phosphate magnesium salt) as a standard by an HPLC method using a Shodex IEC DEAE-825 resin (ammonium acetate 10 mM→1M gradient, detected spectrophotometrically at 265 nm). The elemental analysis was performed by an ICP emission method, flame photometry and an ion chromatography method. Unless otherwise indicated, the reagents used herein were commercially available reagents.
The stability of L-ascorbic acid 2-phosphate zinc salt was compared to that of L-ascorbic acid 2-phosphate magnesium salt. Each salt was dissolved in a buffer solution (50 mM acetic acid-NaOH, pH: 5, or 50 mM Tris-HCl, pH: 8). to a concentration of about 0.1% and stored at 50° C. for 476 hours. The concentrations of the L-ascorbic acid 2-phosphate before and after storage were analyzed by the HPLC method.

[2] = in water; background statement on conventionally known salts; cited from earlier work
Solubility in water = type: physicochemical
[3] = listed as L-ascorbic acid 2-phosphate zinc salt (Example 1)
[4] = listed as L-ascorbic acid 2-phosphate zinc salt (Example 2)

O=C1O[C@H]([C@@H](O)CO)C(O)=C1OP(=O)([O-])[O-].[Zn+2] [Example 1, L-ascorbic acid 2-phosphate zinc salt]
Increase in turbidity after incubation, E. coli (K-12 strain) (E. coli (K-12 strain)): − | Increase in turbidity after incubation, B. subtilis (168 strain) (B. subtilis (168 strain)): − | Stability (100% = concentration before storage) pH: 8 [1, 3]: 93% | Stability (100% = concentration before storage) pH: 5 [1, 3]: 91%

O=C1O[C@H]([C@@H](O)CO)C(O)=C1OP(=O)([O-])[O-].[Zn+2] [Example 2, L-ascorbic acid 2-phosphate zinc salt]
Stability (100% = concentration before storage) pH: 8 [1, 4]: 95% | Stability (100% = concentration before storage) pH: 5 [1, 4]: 92%

O=C1O[C@H]([C@@H](O)CO)C(O)=C1OP(=O)([O-])[O-].[Mg+2] [L-ascorbic acid 2-phosphate magnesium salt]
Increase in turbidity after incubation, E. coli (K-12 strain) (E. coli (K-12 strain)): + | Increase in turbidity after incubation, B. subtilis (168 strain) (B. subtilis (168 strain)): + | Stability (100% = concentration before storage) pH: 8 [1]: 95% | Stability (100% = concentration before storage) pH: 5 [1]: 82% | Concentration of aqueous solution that can be formed [2]: < 30%

O=C1O[C@H]([C@@H](O)CO)C(O)=C1OP(=O)([O-])[O-].[Zn+2] [L-ascorbic acid 2-phosphate zinc salt]
Concentration of aqueous solution easily formed (Solubility in water): ≥ 50 wt %

O=C1O[C@H]([C@@H](O)CO)C(O)=C1OP(=O)([O-])[O-].[Na+].[Na+] [Sodium salt, Sodium L-ascorbic acid 2-phosphate]
Increase in turbidity after incubation, E. coli (K-12 strain) (E. coli (K-12 strain)): + | Increase in turbidity after incubation, B. subtilis (168 strain) (B. subtilis (168 strain)): + | Concentration of aqueous solution that can be formed [2]: about 30%
